According to PubChem BioAssay (NCI):
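48-hour exposure; five concentrations; linearly interpolated endpoints. GI50: concentration for 50% inhibition of growth. TGI: concentration producing complete growth inhibition.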

Assays:
Assay in all cases: NCI anticancer screen, dose series, 48 h
[1] = test system: SNB-75 CNS
[2] = test system: NCI-H460 lung
[3] = test system: OVCAR-4 ovarian
[4] = test system: DU-145 prostate
[5] = test system: PC-3 prostate
[6] = test system: UO-31 renal
[7] = test system: OVCAR-3 ovarian
[8] = test system: SN12C renal
[9] = test system: UACC-257 melanoma
[10] = test system: NCI-H226 lung
[11] = test system: SNB-19 CNS
[12] = test system: SF-539 CNS
[13] = test system: LOX IMVI melanoma
[14] = test system: HOP-62 NSCLC
[15] = test system: CCRF-CEM leukemia
[16] = test system: TK-10 renal
[17] = test system: SK-MEL-5 melanoma
[18] = test system: HS 578T breast
[19] = test system: SR leukemia
[20] = test system: HCT-15 colon
[21] = test system: COLO 205 colon
[22] = test system: MCF7 breast
[23] = test system: SK-MEL-28 melanoma
[24] = test system: RXF 393 renal
[25] = test system: MOLT-4 leukemia
[26] = test system: K-562 leukemia
[27] = test system: ACHN renal
[28] = test system: MDA-MB-231 breast
[29] = test system: HL-60(TB) leukemia
[30] = test system: CAKI-1 renal
[31] = test system: RPMI-8226 leukemia
[32] = test system: NCI-H23 lung
[33] = test system: A549 NSCLC
[34] = test system: U251 CNS
[35] = test system: KM12 colon
[36] = test system: HT29 colon
[37] = test system: MDA-MB-435
[38] = test system: OVCAR-8 ovarian
[39] = test system: SK-MEL-2 melanoma
[40] = test system: SK-OV-3 ovarian
[41] = test system: HCC-2998 colon
[42] = test system: EKVX NSCLC
[43] = test system: M14 melanoma
[44] = test system: NCI/ADR-RES ovarian
[45] = test system: BT-549 breast
[46] = test system: MALME-3M melanoma
[47] = test system: OVCAR-5 ovarian
[48] = test system: SW-620 colon
[49] = test system: SF-295 CNS
[50] = test system: SF-268 CNS
[51] = test system: A498 renal
[52] = test system: 786-0 renal
[53] = test system: UACC-62 melanoma
[54] = test system: IGROV1 ovarian
[55] = test system: HOP-92 NSCLC
[56] = test system: T-47D breast
[57] = test system: HCT-116 colon

CCOC(=O)c1c(NCC(=O)Nc2ccc(Br)cc2)sc2c1CCCC2
GI50 [1]: 2.22 µM
TGI [1]: 14.3 µM
GI50 [2]: 1.94 µM
TGI [2]: 4.31 µM
GI50 [3]: 1.74 µM
TGI [3]: 4.77 µM
GI50 [4]: 1.68 µM
TGI [4]: 3.28 µM
GI50 [5]: 2.46 µM
TGI [5]: 9.71 µM
GI50 [6]: 1.5 µM
TGI [6]: 3.3 µM
GI50 [7]: 1.61 µM
TGI [7]: 3.12 µM
GI50 [8]: 2.51 µM
TGI [8]: 7.16 µM
GI50 [9]: 2.8 µM
TGI [9]: 8.2 µM
GI50 [10]: 1.72 µM
TGI [10]: 6.48 µM
GI50 [11]: 2.2 µM
TGI [11]: 6.31 µM
GI50 [12]: 1.73 µM
TGI [12]: 3.18 µM
GI50 [13]: 0.829 µM
TGI [13]: 2.81 µM
GI50 [14]: 2.32 µM
TGI [14]: 5.71 µM
GI50 [15]: 0.801 µM
TGI [15]: 6.72 µM
GI50 [16]: 1.74 µM
TGI [16]: 3.46 µM
GI50 [17]: 1.65 µM
TGI [17]: 3.08 µM
GI50 [18]: 2.89 µM
TGI [18]: 32.3 µM
GI50 [19]: 1.22 µM
TGI [19]: 5.33 µM
GI50 [20]: 1.38 µM
TGI [20]: 3.47 µM
GI50 [21]: 2.01 µM
TGI [21]: 4.52 µM
GI50 [22]: 1.48 µM
TGI [22]: 3.51 µM
GI50 [23]: 1.71 µM
TGI [23]: 3.49 µM
GI50 [24]: 1.34 µM
TGI [24]: 2.76 µM
GI50 [25]: 0.712 µM
TGI [25]: 4.66 µM
GI50 [26]: 1.66 µM
TGI [26]: 7.09 µM
GI50 [27]: 1.74 µM
TGI [27]: 3.29 µM
GI50 [28]: 2.08 µM
TGI [28]: 5.21 µM
GI50 [29]: 1.57 µM
TGI [29]: 4.37 µM
GI50 [30]: 2.06 µM
TGI [30]: 7.46 µM
GI50 [31]: 2.09 µM
TGI [31]: 5.32 µM
GI50 [32]: 1.81 µM
TGI [32]: 4.6 µM
GI50 [33]: 2.78 µM
TGI [33]: 8.46 µM
GI50 [34]: 1.51 µM
TGI [34]: 3.17 µM
GI50 [35]: 1.97 µM
TGI [35]: 4.1 µM
GI50 [36]: 1.91 µM
TGI [36]: 3.98 µM
GI50 [37]: 1.9 µM
TGI [37]: 5.58 µM
GI50 [38]: 4 µM
TGI [38]: > 100 µM
GI50 [39]: 1.84 µM
TGI [39]: 5.49 µM
GI50 [40]: 3.49 µM
TGI [40]: 10.9 µM
GI50 [41]: 1.82 µM
TGI [41]: 3.36 µM
GI50 [42]: 1.81 µM
TGI [42]: 4.91 µM
GI50 [43]: 1.9 µM
TGI [43]: 4.9 µM
GI50 [44]: 2.6 µM
TGI [44]: 8.51 µM
GI50 [45]: 1.45 µM
TGI [45]: 3.97 µM
GI50 [46]: 1.77 µM
TGI [46]: 3.81 µM
GI50 [47]: 2.02 µM
TGI [47]: 3.77 µM
GI50 [48]: 2.28 µM
TGI [48]: 6.1 µM
GI50 [49]: 3.95 µM
TGI [49]: 14.3 µM
GI50 [50]: 2.06 µM
TGI [50]: 8.24 µM
GI50 [51]: 1.85 µM
TGI [51]: 5.67 µM
GI50 [52]: 2.26 µM
TGI [52]: 6.04 µM
GI50 [53]: 1.48 µM
TGI [53]: 3.16 µM
GI50 [54]: 2.13 µM
TGI [54]: 12.1 µM
GI50 [55]: 1.42 µM
TGI [55]: 3.84 µM
GI50 [56]: 1.76 µM
TGI [56]: 4.61 µM
GI50 [57]: 1.63 µM
TGI [57]: 3.81 µM
